Measurements published in patent publication US9017952B2, “Reagents for probing ROCKs activation” (National Yang Ming University, priority 2012, dated 2015).
Square brackets hold non-standard residues; d marks the D form. Ends that are not written are not given here. pS = N[C@@H](COP(=O)(O)O)C(=O)O

Columns and labels:
[1] = tested on: Ser^1333 phosphorylated flag-ROCKI; experiment: Western blotting with anti-pSer1333 ROCKI antibody, with peptide neutralization; assay type: binding; details: peptide 0.2 μg/ml, antibody 1 μg/ml
Method: FIG. 2(B) illustrates the Western blotting pattern showing anti-pSer^1333 ROCKI antibody-I against the phosphorylated ROCKI. flag-ROCKI protein is obtained with extraction after the WT or S1333A mutant flag-ROCKI expression constructs are respectively transfected to […] cells and immunoprecipitated using anti-flag antibody, and Ser^1333 phosphorylation of flag-ROCKI is probed with antibody-I (1 μg/ml) with or without the competition of phosphorylated peptide-Ia (0.2 μg/ml).
myc-ROCKII-expressing cells were harvested in an immunoprecipitation (IP) buffer (1% NP-40, 5% glycerol, 50 mM Tris/HCl, pH 7.4, 150 mM NaCl, 1 mM PMSF (phenylmethylsulfonyl fluoride), and protease inhibitor cocktail). The lysates after pre-clearance were incubated with anti-myc antibody at 4° C. for 60 minutes, and then precipitated with protein A-agarose beads for 30 minutes. The immunoprecipitates were preincubated with or without 100 μM of Y27632 (ROCK inhibitor), which was followed by incubation with a IX kinase buffer (50 mM Tris/HCl, pH 7.4, 10 mM MgCl2, 1 mM EGTA (ethylene glycol tetraacetic acid), 0.5 mM DTT (dithiothreitol), 5 mM NaF, and 0.1 mM Na3VO4, 20 μM ATP) containing 5 μCi of [γ-^32p]ATP at 30° C. for 20 minutes. […] The protein level of myc-ROCKII was detected by Western blotting with anti-myc antibody known by the skilled person in the art. […]

[2] = tested on: ROCKII Ser^1366 phosphorylation; experiment: Western blotting of serum-starved mouse embryonic fibroblasts stimulated with nocodazole with or without Y27632; assay type: cell-based
Method: FIGS. 6(A) and 6(B) respectively illustrate the Western blotting patterns showing (A) antibody-I and (B) antibody-II against the protein extract from normal mouse embryonic fibroblasts (MEFs) stimulated with nocodazole(10 μM) in present or absent of Y27632 (10 μM).
In addition to the above human cell experiments, the level of Ser^1366 phosphorylation of ROCKII in animal cells is also researched in the present invention.

myc-ROCKII = myc-ROCKII (Bos taurus, UniProt Q28021); experiment: in vitro kinase reaction of immunoprecipitated myc-ROCKII with [γ-32P]ATP (autophosphorylation); assay type: biochemical; details: immunoprecipitates preincubated with 100 μM Y27632; 30° C., 20 minutes
Method: myc-ROCKII-expressing cells were harvested in an immunoprecipitation (IP) buffer (1% NP-40, 5% glycerol, 50 mM Tris/HCl, pH 7.4, 150 mM NaCl, 1 mM PMSF (phenylmethylsulfonyl fluoride), and protease inhibitor cocktail). The lysates after pre-clearance were incubated with anti-myc antibody at 4° C. for 60 minutes, and then precipitated with protein A-agarose beads for 30 minutes. The immunoprecipitates were preincubated with or without 100 μM of Y27632 (ROCK inhibitor), which was followed by incubation with a IX kinase buffer (50 mM Tris/HCl, pH 7.4, 10 mM MgCl2, 1 mM EGTA (ethylene glycol tetraacetic acid), 0.5 mM DTT (dithiothreitol), 5 mM NaF, and 0.1 mM Na3VO4, 20 μM ATP) containing 5 μCi of [γ-^32p]ATP at 30° C. for 20 minutes. The immunoprecipitates (controls) from non-transfected cells were used backgrounds.
The myc-ROCKII protein overexpressed in HEK-293T cells was immunoprecipitated and subjected to an in vitro kinase reaction containing [γ-^32P]ATP in the presence or absence of the ROCK inhibitor Y27632.

[3] = molecular target: ROCKII Ser^1366 phosphorylation (Bos taurus, UniProt Q28021); experiment: Western blotting of Ser1366 phosphorylated myc-ROCKII from treated HEK293T cells; assay type: cell-based, human; details: Y27632 20 μM for 2 hours, probed with antibody-II
Method: myc-ROCKII-expressing cells were harvested in an immunoprecipitation (IP) buffer (1% NP-40, 5% glycerol, 50 mM Tris/HCl, pH 7.4, 150 mM NaCl, 1 mM PMSF (phenylmethylsulfonyl fluoride), and protease inhibitor cocktail). The lysates after pre-clearance were incubated with anti-myc antibody at 4° C. for 60 minutes, and then precipitated with protein A-agarose beads for 30 minutes. The immunoprecipitates were preincubated with or without 100 μM of Y27632 (ROCK inhibitor), which was followed by incubation with a IX kinase buffer (50 mM Tris/HCl, pH 7.4, 10 mM MgCl2, 1 mM EGTA (ethylene glycol tetraacetic acid), 0.5 mM DTT (dithiothreitol), 5 mM NaF, and 0.1 mM Na3VO4, 20 μM ATP) containing 5 μCi of [γ-^32p]ATP at 30° C. for 20 minutes. The immunoprecipitates (controls) from non-transfected cells were used backgrounds. The protein level of myc-ROCKII was detected by Western blotting with anti-myc antibody known by the skilled person in the art.

[4] = tested on: Ser^1366 phosphorylated myc-ROCKII; experiment: Western blotting with anti-pSer1366 ROCKII antibody, with peptide neutralization and λPPase treatment; assay type: binding; details: peptide 0.2 μg/ml, antibody 1 μg/ml
Method: FIG. 2(A) illustrates the Western blotting pattern showing anti-pSer^1366 ROCKII antibody-II against the phosphorylated ROCKII. myc-ROCKII protein is obtained with extraction after the WT or S1366A mutant myc-ROCKII expression constructs are respectively transfected into HEK-293T cells and immunoprecipitated using anti-myc antibody, and Ser^1366 phosphorylation of myc-ROCKII is probed with antibody-II (1 μg/ml) with or without the competition of phosphorylated peptide-IIa (0.2 μg/ml).
FIG. 3 illustrates the Western blotting pattern showing the signal of immunoprecipitated WT myc-ROCKII with or without λ protein phosphatase (λPPase) at 30° C. for 20 minutes treatment probed with antibody-II
myc-ROCKII-expressing cells were harvested in an immunoprecipitation (IP) buffer (1% NP-40, 5% glycerol, 50 mM Tris/HCl, pH 7.4, 150 mM NaCl, 1 mM PMSF (phenylmethylsulfonyl fluoride), and protease inhibitor cocktail). The lysates after pre-clearance were incubated with anti-myc antibody at 4° C. for 60 minutes, and then precipitated with protein A-agarose beads for 30 minutes. […] The protein level of myc-ROCKII was detected by Western blotting with anti-myc antibody known by the skilled person in the art. […]

[5] = tested on: ROCKII Ser^1366 phosphorylation; experiment: immunohistochemical staining of human breast tumor tissue with anti-pSer1366 ROCKII antibody and peptide competition; details: antibody 5 μg/ml, peptide 0.5 μg/ml
Source text: FIG. 7 illustrates the immunohistochemistry images showing RCOKII Ser^1366 phosphorylation in human breast tumor tissues. The tumor part and non-tumor part breast tissues of from two breast cancer patients are sectioned, and probed with anti-pSer^1366 ROCKII antibody in the presence of phosphorylated peptide-lib and unphosphorylated peptide-IIa. The normal rabbit IgG is the control for negative reaction, and #1 is negative for lymph node and #2 is positive for lymph node.
The tumor part and the non-tumor part of the breast tissue blocks were embedded in Tissue-Tek OCT™ compound, snap-frozen, and sectioned into 5 μm cryosections. The sections were fixed with 4% (w/v) paraformaldehyde for 15 minutes and placed in boiling citrate buffer for 10 minutes. Endogenous peroxidase activity was quenched by 3% […] for 10 minutes and this was followed by incubation with 5.5% (v/v) normal goat serum in Tris-buffer saline containing 0.1% of Triton X-100 (TBST) for blocking. Sections were subsequently incubated with primary antibody against pSer^1366 ROCKII (1:200 dilution; 5 μg/ml) in the present or absence of the phosphopeptide or non-phosphopeptide (0.5 μg/ml). […]
Next, whether ROCKII Ser^1366 phosphorylation can be detected is determined by anti-pSer^1366 ROCKII antibody-II. […]

[6] = MEFs serum-starved 24 hours, nocodazole 10 μM

Chain of ROCKII Ser^1366 phosphorylation (Bos taurus, UniProt Q28021) (Q28021 6-1388): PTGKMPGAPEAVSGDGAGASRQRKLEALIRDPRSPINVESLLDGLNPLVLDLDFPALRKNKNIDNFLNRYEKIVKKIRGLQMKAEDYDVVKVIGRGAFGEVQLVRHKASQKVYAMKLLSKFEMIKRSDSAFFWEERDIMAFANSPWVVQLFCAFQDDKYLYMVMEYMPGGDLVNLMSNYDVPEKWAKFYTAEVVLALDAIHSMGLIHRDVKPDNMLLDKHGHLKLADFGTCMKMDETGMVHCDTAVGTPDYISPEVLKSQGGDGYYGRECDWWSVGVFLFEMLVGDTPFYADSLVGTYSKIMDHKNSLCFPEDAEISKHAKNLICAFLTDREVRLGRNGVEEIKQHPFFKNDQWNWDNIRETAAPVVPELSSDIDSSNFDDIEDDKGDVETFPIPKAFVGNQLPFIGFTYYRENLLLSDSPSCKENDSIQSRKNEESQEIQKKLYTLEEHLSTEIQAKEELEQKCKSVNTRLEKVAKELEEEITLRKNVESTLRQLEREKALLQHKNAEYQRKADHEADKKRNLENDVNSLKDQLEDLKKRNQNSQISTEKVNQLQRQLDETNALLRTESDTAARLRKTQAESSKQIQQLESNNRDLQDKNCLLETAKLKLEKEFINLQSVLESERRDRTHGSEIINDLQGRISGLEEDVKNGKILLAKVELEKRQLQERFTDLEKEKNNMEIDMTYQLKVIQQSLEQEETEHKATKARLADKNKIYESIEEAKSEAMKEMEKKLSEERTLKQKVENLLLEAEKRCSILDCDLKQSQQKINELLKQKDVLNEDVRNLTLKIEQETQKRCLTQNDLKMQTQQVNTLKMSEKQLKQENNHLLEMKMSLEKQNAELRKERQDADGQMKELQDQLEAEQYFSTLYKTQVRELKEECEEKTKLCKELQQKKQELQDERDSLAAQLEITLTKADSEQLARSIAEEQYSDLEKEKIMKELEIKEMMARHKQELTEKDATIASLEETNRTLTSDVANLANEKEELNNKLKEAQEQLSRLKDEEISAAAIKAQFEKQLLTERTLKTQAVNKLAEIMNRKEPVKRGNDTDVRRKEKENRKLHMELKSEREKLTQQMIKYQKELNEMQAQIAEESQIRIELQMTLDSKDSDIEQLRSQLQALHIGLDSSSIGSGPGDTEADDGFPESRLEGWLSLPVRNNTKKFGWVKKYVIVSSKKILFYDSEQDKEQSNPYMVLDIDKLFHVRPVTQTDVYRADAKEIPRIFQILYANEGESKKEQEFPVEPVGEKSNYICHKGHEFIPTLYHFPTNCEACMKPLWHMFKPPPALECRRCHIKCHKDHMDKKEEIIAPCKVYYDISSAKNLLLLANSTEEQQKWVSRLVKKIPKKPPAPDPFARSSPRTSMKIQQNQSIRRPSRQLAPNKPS
Chain of myc-ROCKII (Q28021 6-1388): as above

Question: How did the “neutralization of the autophosphorylated signal of anti-pSer^1333 ROCKI antibody” value [1] turn out when “N′-RASPRTLpSTRS-C′ (SEQ ID NO:4) (RASPRTL[pS]TRS) [peptide-Ib]” was run?
Answer: neutralized

Question: What does the source list for `COC(=O)Nc1nc2ccc(C(=O)c3cccs3)cc2[nH]1` [nocodazole]?
Answer: downstream phosphor-MLC signal regulated by ROCKII [2, 6]: markedly increased; signal of ROCKII Ser^1366 phosphorylation [2, 6]: enhanced

Question: What does the source list for `C[C@@H](N)[C@H]1CC[C@H](C(=O)Nc2ccncc2)CC1` [Y27632]?
Answer: phosphorylation signal of radioactively labeled ROCKII (myc-ROCKII): abolished the phosphorylation signal; signal level of Ser^1366 phosphorylated myc-ROCKII [3]: markedly decreased; enhanced phosphorylation signal (ROCKII Ser^1366, phospho-MLC) induced by nocodazole ([2]; MEFs, nocodazole 10 μM plus Y27632 10 μM): disappeared

Question: Which “neutralization of the autophosphorylated signal of anti-pSer^1366 ROCKII antibody” value [4] does the source give for “N′-DPFARSSPRTpSMK-C′ (SEQ ID NO:6) (DPFARSSPRT[pS]MK) [peptide-lib]” here?
Answer: neutralized

Question: And the “ROCKII Ser^1366 phosphorylation signal in IHC under peptide competition” value [5]?
Answer: blocked
